Experiments:
Assay type in all cases: biochemical
λDNA = experiment: Effect of amount of DNA polymerase and acidic substance, PCR of 10 kb fragment (Example 7); conditions: sodium alginate 2.5 μg added to Polymerase B; image analyzer FM-BIO
Procedure: A PCR reagent mixture comprising λDNA as a template and primers λ1 and λ8 as a primer pair was prepared, and PCR was carried out. In this PCR, TaKaRa EX Taq DNA polymerase and Polymerase B were used. The composition for a PCR reagent mixture is shown below.
Buffer for TaKaRa EX Taq DNA polymerase, 0.2 mM each of dATP, dCTP, dGTP and dTTP, 10 pg of λDNA, 1.25 U of TaKaRa EX Taq DNA polymerase or 0.5 μl of Polymerase B and 10 pmol each of primers λ1 and λ8 (final volume being 50 μl).
Further, to the above PCR reagent mixture was added 2.5 μg of sodium alginate, to prepare a PCR reagent mixture.
(§1) The reaction was carried out in 30 cycles for a total period for PCR of about 80 minutes, wherein one cycle of reaction comprises a process consisting of 98° C., 5 seconds-68° C., 2 minutes. After the termination of reaction, 8 μl of the resulting sample was electrophoresed on 1% agarose gel containing ethidium bromide in an amount of 0.00005%, thereby confirming an amplified fragment.

Polymerase A [1] = experiment: Rapid PCR by combination of Polymerase A with acidic substance, about 10 kb fragment (Example 6(1)); design: key: ++: Intensive amplification being observed; +: Amplification being observed; ±: Slight amplification being observed; −: No amplification being observed; conditions: 0.5 μl Polymerase A, 10 pg λDNA, 2.5 μg sodium alginate, 30 cycles 98°C 5 s-68°C 75 s
Procedure: (1) Rapid PCR by Combination of Polymerase A with Acidic Substance Using λDNA as template, a PCR reagent mixture comprising λDNA as a template, primers λ1 and λ8 as a primer pair was prepared, and PCR was carried out. The composition for a PCR reagent mixture is as follows.
50 mM Tris-acetate (pH 8.5), 0.2 mM each of dATP, dCTP, dGTP and dTTP, 3 mM magnesium acetate, 50 mM potassium acetate, 10 pg of λDNA, 0.5 μl of Polymerase A and 10 pmol each of primers λ1 and λ8 (final volume being 25 μl). Further, 2.5 μg of sodium alginate was added to the above PCR reagent mixture. As a control, a PCR reagent mixture without adding sodium alginate was also prepared.
Reaction Conditions: The reaction was carried out in 30 cycles, wherein one cycle of reaction comprises a process consisting of 98° C., 5 seconds-68° C., 75 seconds. The reaction was carried out in fast mode using TaKaRa PCR Thermal Cycler PERSONAL (manufactured by Takara Shuzo Co., Ltd.).
After the termination of reaction, 6 μl each of the resulting sample was electrophoresed on 1% agarose gel containing ethidium bromide in an amount of 0.00005%, thereby confirming an amplified fragment of about 10 kb.

Polymerase B [2] = experiment: Rapid PCR by combination of Polymerase B with acidic substance, 12 kb fragment (Example 6(2)); design: key: + to +++: Extent of amplification is shown in 3 grades.; + to +++: Extent of amplification is shown in 3 grades.; + to +++: Extent of amplification is shown in 3 grades; conditions: 0.5 μl Polymerase B, 10 pg λDNA, 25 μl, 30 cycles 98°C 5 s-68°C 3 min, added 0.75 ng polysaccharide-F or 5 μg sodium alginate
Procedure: A PCR reagent mixture comprising λDNA as a template and primers λ1 and λ9 as a primer pair was prepared, and PCR was carried out. The composition for a PCR reagent mixture is as follows.
Buffer for TaKaRa EX Taq DNA polymerase, 0.2 mM each of dATP, dCTP, dGTP and dTTP, 10 pg of λDNA, 0.5 μl of Polymerase B and 5 pmol each of primers λ1 and λ9 (final volume being 25 μl). Further, 0.75 ng of sulfated-fucose-containing polysaccharide-F or 5 μg of sodium alginate was added, respectively, to the above PCR reagent mixture.
as §1, with “30 cycles,” for “30 cycles for a total period for PCR of about 80 minutes,”, “C., 3” for “C., 2”, “reaction, 5” for “reaction, 8”

Polymerase A [3] = experiment: Combination of spergualins and acidic substances with Polymerase A, 20 kb fragment of E. coli genomic DNA (Example 8(2)); design: key: ++: Intensive amplification being observed; +: Amplification being observed; ±: Slight amplification being observed; −: No amplification being observed; conditions: No 15-deoxyspergualin/2.5 μg sodium alginate, 0.5 μl Polymerase A, 5 ng E. coli genomic DNA, 30 cycles 98°C 5 s-68°C 3 min
Procedure: (2) The effects of the combination of spergualins and acidic substances on the DNA polymerase were studied in a case where template DNA was E. coli genomic DNA. The composition for a PCR reagent mixture is shown below.
The composition for the PCR reagent mixture was the same as that in Item (1) of Example 8, except for using 5 ng of E. coli genomic DNA (manufactured by Takara Shuzo Co., Ltd.) and 10 pmol each of primers of Eco-1 and Eco-6. To the above PCR reagent mixture was added 0.5 μl of Polymerase A, and further were added in combination 2.5 μg of sodium alginate and 15-deoxyspergualin trihydrochloride so as to have a final concentration of 1 μM, 5 μM or 10 μM, respectively, making up a final volume of 50 μl. In addition, as controls, there were respectively prepared a PCR reagent mixture in which 2.5 μg of sodium alginate was only added without adding 15-deoxyspergualin trihydrochloride, and a PCR reagent mixture in which both 15-deoxyspergualin trihydrochloride and sodium alginate were not added.
Rapid PCR was carried out in 30 cycles for a total time period of PCR of about 110 minutes, wherein one cycle of reaction comprises a process consisting of 98° C., 5 seconds-68° C., 3 minutes. […]

Polymerase B [4] = experiment: Combination of spergualins and acidic substances with Polymerase B, 10 kb fragment of λDNA (Example 8(1)); design: key: + to ++++: Extent of amplification is shown in 4 grades.; + to ++++: Extent of amplification is shown in 4 grades.; + to ++++: Extent of amplification is shown in 4 grades.; + to ++++: Extent of amplification is shown in 4 grades.; −: No amplification being observed; conditions: No 15-deoxyspergualin/2.5 μg sodium alginate, 0.5 μl Polymerase B, 10 pg λDNA, 30 cycles 98°C 5 s-68°C 90 s
Procedure: (1) A PCR reagent mixture comprising λDNA as a template and primers λ1 and λ8 as a primer pair was prepared, and rapid PCR was carried out. In this PCR, Polymerase B was used. As the spergualins, 15-deoxyspergualin trihydrochloride was used, and as the acidic substances, sodium alginate (manufactured by Wako Pure Chemicals) was used. The composition for a PCR reagent mixture is shown below.
50 mM Tris-acetate buffer (pH 8.5), 0.2 mM each of dATP, dCTP, dGTP and dTTP, 3 mM magnesium acetate, 50 mM potassium acetate, 10 pg of λDNA, 10 pmol each of primers λ1 and λ8. To the above PCR reagent mixture was added 0.5 μl of Polymerase B, and further 15-deoxyspergualin trihydrochloride and sodium alginate were added in combination at concentrations shown in Table 10, making up a final volume of 50 μl. In addition, as controls, there were respectively prepared a PCR reagent mixture in which 2.5 μg of sodium alginate was added without adding 15-deoxyspergualin trihydrochloride, and a PCR reagent mixture in which both 15-deoxyspergualin trihydrochloride and sodium alginate were not added.
Rapid PCR was carried out in 30 cycles for a total time period of PCR of about 65.5 minutes, wherein one cycle of reaction comprises a process consisting of 98° C., 5 seconds-68° C., 90 seconds. […]

[5] = target: T1, TaKaRa Taq DNA polymerase (Thermus aquaticus, UniProt P19821); experiment: Effects of acidic substances on TaKaRa Taq DNA polymerase, PCR of 8 kb fragment (Example 5(2)); design: key: ++: Intensive amplification being observed; +: Amplification being observed; ±: Slight amplification being observed; −: No amplification being observed; conditions: 10 U TaKaRa Taq, 100 pg λDNA, 25 μl, 30 cycles 98°C 5 s-68°C 3 min, added 0.25 ng polysaccharide-F, 0.25 ng dextran sulfate or 0.5 μg sodium alginate
T1 construct: purchased Takara Shuzo Co., Ltd
T1 sequence (P19821 whole entry, the tested form may be a part): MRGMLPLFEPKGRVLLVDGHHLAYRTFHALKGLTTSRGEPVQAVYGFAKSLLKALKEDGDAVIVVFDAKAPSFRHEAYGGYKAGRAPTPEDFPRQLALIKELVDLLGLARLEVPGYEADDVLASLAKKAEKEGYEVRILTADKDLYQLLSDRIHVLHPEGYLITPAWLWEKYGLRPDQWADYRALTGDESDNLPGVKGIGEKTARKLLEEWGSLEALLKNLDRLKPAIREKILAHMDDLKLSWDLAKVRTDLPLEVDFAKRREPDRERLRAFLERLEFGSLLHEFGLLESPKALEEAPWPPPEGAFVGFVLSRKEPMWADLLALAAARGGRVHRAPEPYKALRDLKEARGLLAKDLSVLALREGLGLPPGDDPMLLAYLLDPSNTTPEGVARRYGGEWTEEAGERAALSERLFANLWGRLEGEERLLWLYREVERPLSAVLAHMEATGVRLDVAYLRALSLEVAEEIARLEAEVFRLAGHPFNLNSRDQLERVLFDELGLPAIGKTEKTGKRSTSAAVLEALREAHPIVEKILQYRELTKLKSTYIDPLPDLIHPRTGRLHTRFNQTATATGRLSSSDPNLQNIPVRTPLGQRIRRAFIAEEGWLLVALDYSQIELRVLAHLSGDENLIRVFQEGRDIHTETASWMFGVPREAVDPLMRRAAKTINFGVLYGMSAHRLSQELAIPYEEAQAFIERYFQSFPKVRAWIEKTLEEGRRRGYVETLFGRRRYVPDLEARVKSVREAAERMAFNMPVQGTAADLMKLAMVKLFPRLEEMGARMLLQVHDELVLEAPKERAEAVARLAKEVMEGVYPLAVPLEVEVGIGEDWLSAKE
Description: Using as acidic substances the sulfated-fucose-containing polysaccharide-F obtained by the process described in Item (1) of Example 5, dextran sulfate powder (manufactured by Onco), or sodium alginate (100 to 150 centipoises, manufactured by Wako Pure Chemicals), the effects of these acidic substances on the activity of TaKaRa Taq DNA polymerase (manufactured by Takara Shuzo Co., Ltd.) were examined.
A PCR reagent mixture comprising λDNA as a template, primers λ1 and λ7 as a primer pair and TaKaRa Taq DNA polymerase as a DNA polymerase was prepared, and PCR was carried out. The PCR reagent mixture was prepared so as to have the following composition.
Buffer for TaKaRa Taq DNA polymerase, 10 U of TaKaRa Taq DNA polymerase, 100 pg of λDNA, 0.2 mM each of DATP, dCTP, dGTP and dTTP, and 5 pmol each of primers λ1 and λ7 (final volume being 25 μl). Further, 0.25 ng of the sulfated-fucose-containing polysaccharide-F, 0.25 ng of dextran sulfate powder, or 0.5 μg of sodium alginate were added as acidic substances to the above PCR reagent mixture.
The reaction was carried out in 30 cycles for a total time period of PCR of about 110 minutes, wherein one cycle of reaction comprises a process consisting of 98° C., 5 seconds-68° C., 3 minutes. […]

Substance	Amount of the amplified product compared to the case where no sodium alginate was added (λDNA)	Amplification Results (Polymerase A [1])	Amplification Results (Polymerase B [2])	Amplification Results (Polymerase A [3])	Amplification Results (Polymerase B [4])	Amplification Results [5]
sodium alginate	about five times	++	+++	±	+	++
dextran sulfate [Dextran Sulfate Powder]						++

Reference: US6673578B1, “Method for synthesizing DNA” (Takara Shuzo Co., Ltd., priority 1998, dated 2004)
